Experimental data from US20250215030A1, “STAT MODULATORS AND USES THEREOF” (Recludix Pharma, Inc., priority 2022, published 2025).

Key:
[1] = molecular target: T1, Recombinant STAT3 protein (STAT3(G127-I722)) (Homo sapiens, UniProt P40763); assay: STAT3 Fluorescence Polarization (FP) Assay; format: binding; conditions: STAT3(G127-I722) 25 nM, probe 5-FAM-GpYLPQTV-NH2 2 nM, 45-minute incubation
T1 construct: STAT3(G127-I722)
In short: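 Serially diluted compounds (1% DMSO) were mixed with 2 nM fluorescent phosphotyrosine peptide and 25 nM STAT3 construct G127-I722, pH 7.4, incubated 45 min at room temperature. IC50 values from fitted polarization curves are reported as categories A (≤100 nM), B, C, D (>10 μM).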

[2] = molecular target: T2, Recombinant STAT6 protein (STAT6(W123-T658)) (Homo sapiens, UniProt P42226); assay: STAT6 Fluorescence Polarization (FP) Assay; format: binding; conditions: STAT6(W123-T658) 250 nM, probe 5-FAM-ApYKPFQDLI-NH2 2 nM, 45-minute incubation
T2 construct: STAT6(W123-T658)
T2 sequence (P42226 123-658): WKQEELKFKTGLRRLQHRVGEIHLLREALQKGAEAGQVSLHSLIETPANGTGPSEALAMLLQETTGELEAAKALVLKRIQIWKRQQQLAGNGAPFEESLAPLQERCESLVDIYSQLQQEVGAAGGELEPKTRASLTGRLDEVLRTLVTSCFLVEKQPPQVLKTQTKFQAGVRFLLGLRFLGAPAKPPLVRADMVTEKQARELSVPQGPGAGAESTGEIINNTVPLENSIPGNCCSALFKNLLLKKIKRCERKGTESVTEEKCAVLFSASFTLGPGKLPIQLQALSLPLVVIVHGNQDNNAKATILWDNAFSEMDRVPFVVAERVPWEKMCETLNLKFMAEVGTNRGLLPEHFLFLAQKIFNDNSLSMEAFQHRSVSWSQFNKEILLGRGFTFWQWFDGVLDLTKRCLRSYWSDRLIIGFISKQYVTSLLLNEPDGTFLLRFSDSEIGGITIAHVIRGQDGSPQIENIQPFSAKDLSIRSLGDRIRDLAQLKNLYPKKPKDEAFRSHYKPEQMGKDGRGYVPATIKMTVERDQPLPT
In short: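 Competitive displacement of a fluorescent phosphotyrosine peptide (2 nM) from recombinant STAT6 W123-T658 (250 nM), 45 min at room temperature in 10 mM HEPES pH 7.4, 50 mM NaCl, 2 mM DTT. mP fitted against log compound for IC50, grouped A (≤300 nM) to D (>30 μM).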

T1 sequence (P40763 127-722, species assumed): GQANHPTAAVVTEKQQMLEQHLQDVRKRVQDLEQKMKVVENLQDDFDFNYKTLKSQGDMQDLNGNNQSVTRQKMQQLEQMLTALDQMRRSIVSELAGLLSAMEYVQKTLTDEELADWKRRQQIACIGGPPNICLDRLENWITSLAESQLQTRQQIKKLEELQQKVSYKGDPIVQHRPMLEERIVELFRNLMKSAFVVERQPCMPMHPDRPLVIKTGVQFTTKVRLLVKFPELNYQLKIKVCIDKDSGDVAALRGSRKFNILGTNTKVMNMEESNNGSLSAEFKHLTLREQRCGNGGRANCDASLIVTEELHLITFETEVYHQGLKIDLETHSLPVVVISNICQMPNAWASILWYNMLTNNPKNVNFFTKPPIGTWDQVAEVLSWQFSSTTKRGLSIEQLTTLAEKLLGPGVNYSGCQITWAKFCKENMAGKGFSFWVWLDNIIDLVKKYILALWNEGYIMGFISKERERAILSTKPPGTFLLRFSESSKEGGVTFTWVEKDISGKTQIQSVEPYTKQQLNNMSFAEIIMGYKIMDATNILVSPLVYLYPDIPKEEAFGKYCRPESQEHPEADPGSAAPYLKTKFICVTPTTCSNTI

## O=C(N[C@H]1C[C@@H]2C[C@@H]2C[C@H]2CC[C@@H](C(=O)N3C[C@@H]4[C@H]3CCN4c3cccnc3)N2C1=O)c1cc2cc(C(F)P(=O)(O)O)ccc2s1 (stereo partly drawn) [Example 296, (fluoro(2-(((3S,6S,7aS,8aR,9aR)-5-oxo-3-((1R,5R)-2-(pyridin-3-yl)-2,6-diazabicyclo[3.2.0]heptane-6-carbonyl)decahydro-1H-cyclopropa[d]pyrrolo[1,2-a]azocin-6-yl)carbamoyl)benzo[b]thiophen-5-yl)methyl)phosphonic acid]
[1]
  IC50: < 0.1 µM
[2]
  IC50: 0.3 to 3 µM

## O=C(N[C@H]1C[C@@H]2C[C@@H]2C[C@H]2CC[C@@H](C(=O)N3CC(c4ccon4)C3)N2C1=O)c1cc2cc(C(F)(F)P(=O)(O)O)ccc2s1 [Example 299, (difluoro(2-(((3S,6S,7aS,8aR,9aR)-3-(3-(isoxazol-3-yl)azetidine-1-carbonyl)-5-oxodecahydro-1H-cyclopropa[d]pyrrolo[1,2-a]azocin-6-yl)carbamoyl)benzo[b]thiophen-5-yl)methyl)phosphonic acid]
[1]
  IC50: < 0.1 µM
[2]
  IC50: 0.3 to 3 µM

## O=C(N[C@H]1C[C@@H]2C[C@@H]2C[C@H]2CC[C@@H](C(=O)N3CC(c4ncco4)C3)N2C1=O)c1cc2cc(C(F)(F)P(=O)(O)O)ccc2s1 [Example 300, (difluoro(2-(((3S,6S,7aS,8aR,9aR)-3-(3-(oxazol-2-yl)azetidine-1-carbonyl)-5-oxodecahydro-1H-cyclopropa[d]pyrrolo[1,2-a]azocin-6-yl)carbamoyl)benzo[b]thiophen-5-yl)methyl)phosphonic acid]
[1]
  IC50: < 0.1 µM
[2]
  IC50: 0.3 to 3 µM

## O=C(N[C@H]1C[C@@H]2C[C@@H]2C[C@H]2CC[C@@H](C(=O)N3CC(N4CCS(=O)(=O)CC4)C3)N2C1=O)c1cc2cc(C(F)P(=O)(O)O)ccc2s1 (stereo partly drawn) [Example 301, ((2-(((3S,6S,7aS,8aR,9aR)-3-(3-(1,1-dioxidothiomorpholino)azetidine-1-carbonyl)-5-oxodecahydro-1H-cyclopropa[d]pyrrolo[1,2-a]azocin-6-yl)carbamoyl)benzo[b]thiophen-5-yl)fluoromethyl)phosphonic acid]
[1]
  IC50: 0.1 to 1 µM
[2]
  IC50: 3 to 30 µM

## O=C(N[C@H]1C[C@H]2C[C@H]2C[C@H]2CC[C@@H](C(=O)N3CC(N4CCS(=O)(=O)CC4)C3)N2C1=O)c1cc2cc(C(F)P(=O)(O)O)ccc2s1 (stereo partly shown) [Example 302]
[1]
  IC50: 0.1 to 1 µM
[2]
  IC50: 3 to 30 µM

## O=C(N[C@H]1C[C@@H]2C[C@@H]2C[C@H]2CC[C@@H](C(=O)N3CC(c4cnccc4F)C3)N2C1=O)c1cc2cc(C(F)(F)P(=O)(O)O)ccc2s1 [Example 303, (difluoro(2-(((3S,6S,7aS,8aR,9aR)-3-(3-(4-fluoropyridin-3-yl)azetidine-1-carbonyl)-5-oxodecahydro-1H-cyclopropa[d]pyrrolo[1,2-a]azocin-6-yl)carbamoyl)benzo[b]thiophen-5-yl)methyl)phosphonic acid]
[1]
  IC50: < 0.1 µM
[2]
  IC50: 0.3 to 3 µM

## Cn1cnnc1C1CN(C(=O)[C@@H]2CC[C@@H]3C[C@H]4C[C@H]4C[C@H](NC(=O)c4cc5cc(C(F)P(=O)(O)O)ccc5s4)C(=O)N32)C1 (stereo partly drawn) [Example 304, (fluoro(2-(((3S,6S,7aS,8aR,9aR)-3-(3-(4-methyl-4H-1,2,4-triazol-3-yl)azetidine-1-carbonyl)-5-oxodecahydro-1H-cyclopropa[d]pyrrolo[1,2-a]azocin-6-yl)carbamoyl)benzo[b]thiophen-5-yl)methyl)phosphonic acid]
[1]
  IC50: < 0.1 µM
[2]
  IC50: 3 to 30 µM

## O=C(N[C@H]1C[C@@H]2C[C@@H]2C[C@H]2CC[C@@H](C(=O)N3CC(c4ncccn4)C3)N2C1=O)c1cc2cc(C(F)P(=O)(O)O)ccc2s1 (stereo partly drawn) [Example 305, (fluoro(2-(((3S,6S,7aS,8aR,9aR)-5-oxo-3-(3-(pyrimidin-2-yl)azetidine-1-carbonyl)decahydro-1H-cyclopropa[d]pyrrolo[1,2-a]azocin-6-yl)carbamoyl)benzo[b]thiophen-5-yl)methyl)phosphonic acid]
[1]
  IC50: 0.1 to 1 µM
[2]
  IC50: 3 to 30 µM

## O=C(N[C@H]1C[C@@H]2C[C@@H]2C[C@H]2CC[C@@H](C(=O)N3CC(c4ccon4)C3)N2C1=O)c1cc2cc(C(F)P(=O)(O)O)ccc2s1 (stereo partly drawn) [Example 312, (fluoro(2-(((3S,6S,7aS,8aR,9aR)-3-(3-(isoxazol-3-yl)azetidine-1-carbonyl)-5-oxodecahydro-1H-cyclopropa[d]pyrrolo[1,2-a]azocin-6-yl)carbamoyl)benzo[b]thiophen-5-yl)methyl)phosphonic acid]
[1]
  IC50: < 0.1 µM
[2]
  IC50: 3 to 30 µM

## O=C(N[C@H]1C[C@H]2C[C@H]2C[C@H]2CC[C@@H](C(=O)N3CC[C@H](c4cnccc4F)C3)N2C1=O)c1cc2cc(C(F)P(=O)(O)O)ccc2s1 (stereo partly drawn) [Example 313, (fluoro(2-(((3S,6S,7aR,8aS,9aR)-3-((R)-3-(4-fluoropyridin-3-yl)pyrrolidine-1-carbonyl)-5-oxodecahydro-1H-cyclopropa[d]pyrrolo[1,2-a]azocin-6-yl)carbamoyl)benzo[b]thiophen-5-yl)methyl)phosphonic acid]
[1]
  IC50: < 0.1 µM
[2]
  IC50: 0.3 to 3 µM

## O=C(N[C@H]1C[C@H]2C[C@H]2C[C@H]2CC[C@@H](C(=O)N3CC(c4ncccn4)C3)N2C1=O)c1cc2cc(C(F)P(=O)(O)O)ccc2s1 (stereo partly drawn) [Example 317, (fluoro(2-(((3S,6S,7aR,8aS,9aR)-5-oxo-3-(3-(pyrimidin-2-yl)azetidine-1-carbonyl)decahydro-1H-cyclopropa[d]pyrrolo[1,2-a]azocin-6-yl)carbamoyl)benzo[b]thiophen-5-yl)methyl)phosphonic acid]
[1]
  IC50: < 0.1 µM
[2]
  IC50: 3 to 30 µM

## COc1ccncc1C1CN(C(=O)[C@@H]2CC[C@@H]3C[C@@H]4C[C@@H]4C[C@H](NC(=O)c4cc5cc(C(F)P(=O)(O)O)ccc5s4)C(=O)N32)C1 (stereo partly drawn) [Example 318, (fluoro(2-(((3S,6S,7aR,8aS,9aR)-3-(3-(4-methoxypyridin-3-yl)azetidine-1-carbonyl)-5-oxodecahydro-1H-cyclopropa[d]pyrrolo[1,2-a]azocin-6-yl)carbamoyl)benzo[b]thiophen-5-yl)methyl)phosphonic acid]
[1]
  IC50: < 0.1 µM
[2]
  IC50: 3 to 30 µM

## Cc1ccncc1C1CN(C(=O)[C@@H]2CC[C@@H]3C[C@@H]4C[C@@H]4C[C@H](NC(=O)c4cc5cc(C(F)P(=O)(O)O)ccc5s4)C(=O)N32)C1 (stereo partly drawn) [Example 320, (fluoro(2-(((3S,6S,7aR,8aS,9aR)-3-(3-(4-methylpyridin-3-yl)azetidine-1-carbonyl)-5-oxodecahydro-1H-cyclopropa[d]pyrrolo[1,2-a]azocin-6-yl)carbamoyl)benzo[b]thiophen-5-yl)methyl)phosphonic acid]
[1]
  IC50: < 0.1 µM
[2]
  IC50: 3 to 30 µM

## O=C(N[C@H]1C[C@@H]2C[C@@H]2C[C@H]2CC[C@@H](C(=O)N3CC(c4ncco4)C3)N2C1=O)c1cc2cc(C(F)P(=O)(O)O)ccc2s1 (stereo partly drawn) [Example 322, (fluoro(2-(((3S,6S,7aS,8aR,9aR)-3-(3-(oxazol-2-yl)azetidine-1-carbonyl)-5-oxodecahydro-1H-cyclopropa[d]pyrrolo[1,2-a]azocin-6-yl)carbamoyl)benzo[b]thiophen-5-yl)methyl)phosphonic acid]
[1]
  IC50: < 0.1 µM
[2]
  IC50: 3 to 30 µM

## Cc1cnc(C2CN(C(=O)[C@@H]3CC[C@@H]4C[C@H]5C[C@H]5C[C@H](NC(=O)c5cc6cc(C(F)P(=O)(O)O)ccc6s5)C(=O)N43)C2)o1 (stereo partly drawn) [Example 324, (fluoro(2-(((3S,6S,7aS,8aR,9aR)-3-(3-(5-methyloxazol-2-yl)azetidine-1-carbonyl)-5-oxodecahydro-1H-cyclopropa[d]pyrrolo[1,2-a]azocin-6-yl)carbamoyl)benzo[b]thiophen-5-yl)methyl)phosphonic acid]
[1]
  IC50: 0.1 to 1 µM
[2]
  IC50: 3 to 30 µM

## Cc1noc(C2CN(C(=O)[C@@H]3CC[C@@H]4C[C@H]5C[C@H]5C[C@H](NC(=O)c5cc6cc(C(F)P(=O)(O)O)ccc6s5)C(=O)N43)C2)n1 (stereo partly drawn) [Example 326, (fluoro(2-(((3S,6S,7aS,8aR,9aR)-3-(3-(3-methyl-1,2,4-oxadiazol-5-yl)azetidine-1-carbonyl)-5-oxodecahydro-1H-cyclopropa[d]pyrrolo[1,2-a]azocin-6-yl)carbamoyl)benzo[b]thiophen-5-yl)methyl)phosphonic acid]
[1]
  IC50: 0.1 to 1 µM
[2]
  IC50: 3 to 30 µM

## Cc1nnc(C2CN(C(=O)[C@@H]3CC[C@@H]4C[C@H]5C[C@H]5C[C@H](NC(=O)c5cc6cc(C(F)P(=O)(O)O)ccc6s5)C(=O)N43)C2)o1 (stereo partly drawn) [Example 327, (fluoro(2-(((3S,6S,7aS,8aR,9aR)-3-(3-(5-methyl-1,3,4-oxadiazol-2-yl)azetidine-1-carbonyl)-5-oxodecahydro-1H-cyclopropa[d]pyrrolo[1,2-a]azocin-6-yl)carbamoyl)benzo[b]thiophen-5-yl)methyl)phosphonic acid]
[1]
  IC50: 0.1 to 1 µM
[2]
  IC50: 3 to 30 µM
